# Target: Neuraminidase (Influenza A virus (A/Puerto Rico/8/1934(H1N1)), UniProt P03468)
# Test: Inhibitory activity against influenza A virus sialidase
row,SMILES,IC50
1,CCCn1nc(Cc2ccccc2)nc1[C@@H]1OC(C(=O)OC(c2ccccc2)c2ccccc2)=C[C@H](NC(=O)OC(C)(C)C)[C@H]1NC(C)=O,0.07 µM
2,CCCn1nc([C@@H]2OC(C(=O)OC(c3ccccc3)c3ccccc3)=C[C@H](NC(=O)OC(C)(C)C)[C@H]2NC(C)=O)nc1Cc1ccccc1,12 µM
3,CC(=O)N[C@@H]1[C@@H](N)C=C(C(=O)O)O[C@H]1c1nc(Cc2ccccc2)no1,99 µM
4,CC(=O)N[C@@H]1[C@@H](NC(=O)OC(C)(C)C)C=C(C(=O)OC(c2ccccc2)c2ccccc2)O[C@H]1c1nnc(Cc2ccccc2)[nH]1,87 µM
5,CCCCc1noc([C@@H]2OC(C(=O)O)=C[C@H](N)[C@H]2NC(C)=O)n1,56 µM
6,CC(=O)N[C@@H]1[C@@H](N)C=C(C(=O)O)O[C@H]1c1nc(C)no1,23 µM
7,CC(=O)N[C@@H]1[C@@H](N)C=C(C(=O)O)O[C@H]1c1nc(-c2ccccc2)no1,14 µM
8,CCCCc1nnc([C@@H]2OC(C(=O)O)=C[C@H](N)[C@H]2NC(C)=O)n1CCC,0.33 µM

# From ChEMBL document CHEMBL1152059, “Novel inhibitors of influenza sialidases related to zanamivir. Heterocyclic replacements of the glycerol sidechain” (Bioorg Med Chem Lett, 1997)
